# Results from patent US11053204B2, “Pyrimidinyloxy benzene derivatives as herbicides” (FMC Corporation, priority 2015, dated 2021).
# What was measured:
# Assay type in all cases: in vivo
# [1] = tested on: windgrass (Apera spica-venti); experiment: Test C preemergence, plant response rating
# [2] = tested on: surinam grass (Brachiaria decumbens); experiment: Test C preemergence, plant response rating
# [3] = tested on: wild poinsettia (Euphorbia heterophylla); experiment: Test C preemergence, plant response rating
# [4] = tested on: oat, wild (wild oat Avena fatua); experiment: Test C preemergence, plant response rating
# [5] = tested on: pigweed, palmer (palmer pigweed, Amaranthus palmeri); experiment: Test C preemergence, plant response rating
# [6] = tested on: nutsedge, yellow (yellow nutsedge, Cyperus esculentus); experiment: Test C postemergence, plant response rating; conditions: Cyperus, post-emergence
# Procedure, shortened: (§1)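 After sowing in loam–sand blend or silt loam, pots were sprayed preemergence; separately grown 1- to 4-leaf plants were sprayed postemergence. Following 13 to 15 d under greenhouse conditions, injury was rated visually on a 0 to 100 scale.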
# [7] = tested on: blackgrass (Alopecurus myosuroides); experiment: Test C postemergence, plant response rating; conditions: Alopecurus myosuroides, post-emergence
# Procedure, shortened: as §1
# kochia (Kochia scoparia) = experiment: Test C postemergence, plant response rating; conditions: Bassia scoparia, post-emergence
# Procedure, shortened: as §1
# [8] = tested on: oilseed rape (Brassica napus); experiment: Test C postemergence, plant response rating; conditions: Brassica napus, post-emergence
# Procedure, shortened: as §1
# corn (Zea mays) = experiment: Test C postemergence, plant response rating; conditions: Zea mays, post-emergence
# Procedure, shortened: as §1
# [9] = tested on: waterhemp (common waterhemp, Amaranthus rudis); experiment: Test C postemergence, plant response rating
# Procedure, shortened: as §1
# [10] = tested on: galium (catchweed bedstraw, Galium aparine); experiment: Test C postemergence, plant response rating; conditions: Galium, post-emergence
# Procedure, shortened: as §1
# [11] = tested on: lambsquarters (Chenopodium album); experiment: Test C postemergence, plant response rating; conditions: Chenopodium album, post-emergence
# Procedure, shortened: as §1
# [12] = tested on: ragweed (common ragweed, Ambrosia elatior); experiment: Test C postemergence, plant response rating; conditions: Ambrosia artemisiifolia, post-emergence
# Procedure, shortened: as §1
# [13] = tested on: oat, wild (wild oat Avena fatua); experiment: Test C postemergence, plant response rating; conditions: Avena fatua, post-emergence
# Procedure, shortened: as §1
# [14] = tested on: morningglory (Ipomoea coccinea); experiment: Test C postemergence, plant response rating; conditions: Ipomoea, post-emergence
# Procedure, shortened: as §1
# [15] = tested on: chickweed (common chickweed, Stellaria media); experiment: Test C postemergence, plant response rating; conditions: Stellaria media, post-emergence
# Procedure, shortened: as §1
# [16] = tested on: wheat (winter wheat, Triticum aestivum); experiment: Test C postemergence, plant response rating; conditions: Triticum aestivum, post-emergence
# Procedure, shortened: as §1
# soybean (Glycine max) = experiment: Test C postemergence, plant response rating; conditions: Glycine max, post-emergence
# Procedure, shortened: as §1
# [17] = tested on: foxtail, giant (giant foxtail, Setaria faberii); experiment: Test C postemergence, plant response rating; conditions: Setaria faberi, post-emergence
# Procedure, shortened: as §1
# [18] = tested on: velvetleaf (Abutilon theophrasti); experiment: Test C postemergence, plant response rating; conditions: Abutilon theophrasti, post-emergence
# Procedure, shortened: as §1
# [19] = 62 g ai/ha, scale 0 to 100 (0 no effect, 100 complete control)
# [20] = 125 g ai/ha, scale 0 to 100 (0 no effect, 100 complete control)
smiles,measurement,setting,value
"O=C(CCC(F)(F)F)c1c(Cl)cccc1Oc1ncc(Cl)cn1 [Compound 107, 1-[2-chloro-6-[(5-chloro-2-pyrimidinyl)oxy]phenyl]-4,4,4-trifluoro-1-butanone]","Plant response rating, Windgrass","[1]; 31 g ai/ha, scale 0 to 100",100
same,"Plant response rating, Windgrass","[1]; 62 g ai/ha, scale 0 to 100",100
same,"Plant response rating, Windgrass","[1]; 125 g ai/ha, scale of 0 to 100",100
same,"Plant response rating, Surinam Grass","[2]; 31 g ai/ha, scale 0 to 100",60
same,"Plant response rating, Surinam Grass","[2]; 62 g ai/ha, scale 0 to 100",98
same,"Plant response rating, Surinam Grass","[2]; 125 g ai/ha, scale of 0 to 100",98
same,"Plant response rating, Poinsettia, Wild","[3]; 31 g ai/ha, scale 0 to 100",10
same,"Plant response rating, Poinsettia, Wild","[3]; 62 g ai/ha, scale 0 to 100",40
same,"Plant response rating, Poinsettia, Wild","[3]; 125 g ai/ha, scale of 0 to 100",70
same,"Plant response rating, Oat, Wild","[4]; 31 g ai/ha, scale 0 to 100",5
same,"Plant response rating, Oat, Wild","[4]; 62 g ai/ha, scale 0 to 100",30
same,"Plant response rating, Oat, Wild","[4]; 125 g ai/ha, scale of 0 to 100",65
same,"Plant response rating, Pigweed, Palmer","[5]; 31 g ai/ha, scale 0 to 100",100
same,"Plant response rating, Pigweed, Palmer","[5]; 62 g ai/ha, scale 0 to 100",100
same,"Plant response rating, Pigweed, Palmer","[5]; 125 g ai/ha, scale of 0 to 100",100
same,pest or weed control at 16 g/ha,"[6]; 16 g ai/ha, scale of 0 to 100",5%
same,pest or weed control at 31 g/ha,"[6]; 31 g ai/ha, scale 0 to 100",5%
same,pest or weed control at 62 g/ha,[6]; [19],5%
same,pest or weed control at 125 g/ha,[6]; [20],5%
same,pest or weed control at 16 g/ha,"[7]; 16 g ai/ha, scale 0 to 100",5%
same,pest or weed control at 31 g/ha,"[7]; 31 g ai/ha, scale 0 to 100",20%
same,pest or weed control at 62 g/ha,[7]; [19],20%
same,pest or weed control at 125 g/ha,[7]; [20],60%
same,pest or weed control at 16 g/ha,"kochia (Kochia scoparia); 16 g ai/ha, scale of 0 to 100",80%
same,pest or weed control at 31 g/ha,"kochia (Kochia scoparia); 31 g ai/ha, scale 0 to 100",85%
same,pest or weed control at 62 g/ha,kochia (Kochia scoparia); [19],95%
same,pest or weed control at 125 g/ha,kochia (Kochia scoparia); [20],98%
same,plant injury at 16 g/ha,"[8]; 16 g ai/ha, scale of 0 to 100",65%
same,plant injury at 31 g/ha,"[8]; 31 g ai/ha, scale 0 to 100",80%
same,plant injury at 62 g/ha,[8]; [19],95%
same,plant injury at 125 g/ha,[8]; [20],98%
same,"Corn plant response rating (crop injury, 0 = no effect, 100 = complete kill) at 16 g/ha","corn (Zea mays); 16 g ai/ha, scale of 0 to 100",10%
same,"Corn plant response rating (crop injury, 0 = no effect, 100 = complete kill) at 31 g/ha","corn (Zea mays); 31 g ai/ha, scale 0 to 100",20%
same,plant injury at 62 g/ha,corn (Zea mays); [19],20%
same,plant injury at 125 g/ha,corn (Zea mays); [20],30%
same,"Plant response rating, Waterhemp","[9]; 16 g ai/ha, scale of 0 to 100",95
same,"Plant response rating, Waterhemp","[9]; 31 g ai/ha, scale 0 to 100",98
same,Waterhemp plant response rating,[9]; [20],100
same,pest or weed control at 16 g/ha,"[10]; 16 g ai/ha, scale of 0 to 100",75%
same,pest or weed control at 31 g/ha,"[10]; 31 g ai/ha, scale 0 to 100",80%
same,pest or weed control at 62 g/ha,[10]; [19],90%
same,pest or weed control at 125 g/ha,[10]; [20],95%
same,pest or weed control at 16 g/ha,"[11]; 16 g ai/ha, scale of 0 to 100",80%
same,pest or weed control at 31 g/ha,"[11]; 31 g ai/ha, scale 0 to 100",85%
same,pest or weed control at 62 g/ha,[11]; [19],100%
same,pest or weed control at 125 g/ha,[11]; [20],100%
same,pest or weed control at 16 g/ha,"[12]; 16 g ai/ha, scale of 0 to 100",25%
same,pest or weed control at 31 g/ha,"[12]; 31 g ai/ha, scale 0 to 100",35%
same,pest or weed control at 62 g/ha,[12]; [19],35%
same,pest or weed control at 125 g/ha,[12]; [20],45%
same,pest or weed control at 16 g/ha,"[13]; 16 g ai/ha, scale of 0 to 100",5%
same,pest or weed control at 31 g/ha,"[13]; 31 g ai/ha, scale 0 to 100",40%
same,pest or weed control at 62 g/ha,[13]; [19],35%
same,pest or weed control at 125 g/ha,[13]; [20],45%
same,pest or weed control at 16 g/ha,"[14]; 16 g ai/ha, scale of 0 to 100",20%
same,pest or weed control at 31 g/ha,"[14]; 31 g ai/ha, scale 0 to 100",60%
same,pest or weed control at 62 g/ha,[14]; [19],80%
same,pest or weed control at 125 g/ha,[14]; [20],95%
same,pest or weed control at 16 g/ha,"[15]; 16 g ai/ha, scale of 0 to 100",80%
same,pest or weed control at 31 g/ha,"[15]; 31 g ai/ha, scale 0 to 100",90%
same,pest or weed control at 62 g/ha,[15]; [19],98%
same,pest or weed control at 125 g/ha,[15]; [20],100%
same,plant injury at 16 g/ha,"[16]; 16 g ai/ha, scale of 0 to 100",5%
same,plant injury at 31 g/ha,"[16]; 31 g ai/ha, scale 0 to 100",5%
same,plant injury at 125 g/ha,[16]; [20],30%
same,plant injury at 62 g/ha,"[16]; rate not given, scale 0 to 100, read-out: Plant response rating, Wheat",10%
same,plant injury at 16 g/ha,"soybean (Glycine max); 16 g ai/ha, scale of 0 to 100",50%
same,plant injury at 31 g/ha,"soybean (Glycine max); 31 g ai/ha, scale 0 to 100",40%
same,plant injury at 62 g/ha,soybean (Glycine max); [19],95%
same,plant injury at 125 g/ha,soybean (Glycine max); [20],95%
same,pest or weed control at 16 g/ha,"[17]; 16 g ai/ha, scale of 0 to 100",10%
same,pest or weed control at 31 g/ha,"[17]; 31 g ai/ha, scale 0 to 100",10%
same,pest or weed control at 62 g/ha,[17]; [19],20%
same,pest or weed control at 125 g/ha,[17]; [20],25%
same,pest or weed control at 16 g/ha,"[18]; 16 g ai/ha, scale of 0 to 100",60%
same,pest or weed control at 31 g/ha,"[18]; 31 g ai/ha, scale 0 to 100",65%
same,pest or weed control at 125 g/ha,[18]; [20],90%
same,pest or weed control at 62 g/ha,"[18]; rate not given, scale 0 to 100, read-out: Plant response rating, Velvetleaf",75%
